“Also recorded” adds a separate entry of the source.
What was measured:
[1] = test system: L. donovani MHOM/ET/67/L82 (synonym HU3); assay: Acute mouse infection model (VL); format: in vivo, BALB/c mice; details: 12.5 mg/kg bid or higher, 5-day dosing
Experimental: (§1) Female 8−10-week-old BALB/c mice were infected with 2 x 10^7 L. donovani MHOM/ET/67/L82 (synonym HU3) or L. infantum MHOM/MA67/ITMAP263 amastigotes on day 0 and dispatched in groups of five individuals. […] Five days following end of treatment, all mice were sacrificed, and parasite burden was determined from smears of liver sections. Efficacy was expressed as the mean percentage load reduction compared to untreated (vehicle-only) control animals. Reference drugs miltefosine and/or AmBisome were used as positive controls and comparators.

[2] = test system: L. infantum MHOM/MA67/ITMAP263; assay: Acute mouse infection model (VL); format: in vivo, BALB/c mice; details: for decrease in the liver parasite burden compared to control animals: 5 consecutive days
Experimental: as §1

[3] = test system: L. infantum; assay: Chronic hamster infection model (VL); format: in vivo, golden hamsters
From the text: Female golden hamsters (5 per treatment group) were infected through intracardiac administration of 2x10^7 L. infantum amastigotes obtained from the spleen of a heavily infected donor hamster. […] After 5-day treatment period, followed by a 10-day wash out period, animals were sacrificed, and parasites burden assessed in the three target organs (liver, spleen, and bone-marrow). For this assessment, organs of individual animals were weighed, except for bone-marrow thus only providing a semi-quantitative evaluation only. Impression smears were Giemsa-stained for microscopic evaluation of amastigote burden, expressed as LDU (= mean number of amastigotes/cell × organ weight in mg) and the results were expressed as a percentage reduction compared to the burdens in the control group (vehicle as placebo). For evaluating the presence of viable residual burden after treatment, a promastigote back-transformation assay was conducted. This consisted of the incubation at ambient temperature of aseptically collected pieces of spleen or liver tissue in 1 mL of promastigote back-transformation medium in 24-well plates. For the bone-marrow, resected femurs were flushed with 1 mL medium. The medium consists of HOMEM pH 6.0 prepared as described elsewhere ([5]) with 10% fetal bovine serum (Gibco), 2.5% penicillin/streptomycin and 1% gentamicin (Merck). […]

[4] = In vitro metabolism, liver microsomes; format: in vitro ADME, dog
Experimental: Compounds were spiked into microsomal matrix prepared in 0.1 M pH 7.4 phosphate buffer containing magnesium chloride (final concentration of 3.3 mM), equilibrated for 5-10 min at 37°C. The reaction was initiated with the addition of freshly prepared solution of NADPH (final 1.3 mM). Control samples without co-factor were included for comparison. Aliquots of the reaction mixtures were taken periodically over 60 min and quenched with acetonitrile containing internal standards (metolazone and diazepam). Quenched samples were maintained on ice for approximately 20-30 min, centrifuged (for 5 min) and the supernatant was analyzed by LC-MS.
In vitro intrinsic clearance (CLint, μL/min/mg or μL/min/10^6 cells) values were calculated from the apparent first order degradation rate constant divided by the microsome concentration or the hepatocyte cell number (10^6 viable cells/mL). In vitro CLint values were then divided by the fraction unbound in the in vitro test system (to give CLint,u) and scaled to in vivo values (mL/min/kg) using published physiological scaling factors ([28]). Blood clearance in each species was then calculated using the well-stirred model of hepatic extraction (equation 2) where Q is the hepatic blood flow and fu,blood is calculated from fu,plasma/B:P: [2] PredictedCLblood=Q x fu,blood x CLint,u/Q+fu,blood x CLint,u
Blood clearance values were converted to plasma clearance by multiplying by the B:P.

[5] = target: T1, hERG potassium channel (Homo sapiens, UniProt Q12809); assay: hERG channel test (Qpatch / Qube); format: cell-based; details: CHO cells stably expressing hERG potassium channels, Qpatch hERG (Fig. S15)
T1 construct: host or cells: Chinese hamster ovary cells
T1 sequence (Q12809 whole entry): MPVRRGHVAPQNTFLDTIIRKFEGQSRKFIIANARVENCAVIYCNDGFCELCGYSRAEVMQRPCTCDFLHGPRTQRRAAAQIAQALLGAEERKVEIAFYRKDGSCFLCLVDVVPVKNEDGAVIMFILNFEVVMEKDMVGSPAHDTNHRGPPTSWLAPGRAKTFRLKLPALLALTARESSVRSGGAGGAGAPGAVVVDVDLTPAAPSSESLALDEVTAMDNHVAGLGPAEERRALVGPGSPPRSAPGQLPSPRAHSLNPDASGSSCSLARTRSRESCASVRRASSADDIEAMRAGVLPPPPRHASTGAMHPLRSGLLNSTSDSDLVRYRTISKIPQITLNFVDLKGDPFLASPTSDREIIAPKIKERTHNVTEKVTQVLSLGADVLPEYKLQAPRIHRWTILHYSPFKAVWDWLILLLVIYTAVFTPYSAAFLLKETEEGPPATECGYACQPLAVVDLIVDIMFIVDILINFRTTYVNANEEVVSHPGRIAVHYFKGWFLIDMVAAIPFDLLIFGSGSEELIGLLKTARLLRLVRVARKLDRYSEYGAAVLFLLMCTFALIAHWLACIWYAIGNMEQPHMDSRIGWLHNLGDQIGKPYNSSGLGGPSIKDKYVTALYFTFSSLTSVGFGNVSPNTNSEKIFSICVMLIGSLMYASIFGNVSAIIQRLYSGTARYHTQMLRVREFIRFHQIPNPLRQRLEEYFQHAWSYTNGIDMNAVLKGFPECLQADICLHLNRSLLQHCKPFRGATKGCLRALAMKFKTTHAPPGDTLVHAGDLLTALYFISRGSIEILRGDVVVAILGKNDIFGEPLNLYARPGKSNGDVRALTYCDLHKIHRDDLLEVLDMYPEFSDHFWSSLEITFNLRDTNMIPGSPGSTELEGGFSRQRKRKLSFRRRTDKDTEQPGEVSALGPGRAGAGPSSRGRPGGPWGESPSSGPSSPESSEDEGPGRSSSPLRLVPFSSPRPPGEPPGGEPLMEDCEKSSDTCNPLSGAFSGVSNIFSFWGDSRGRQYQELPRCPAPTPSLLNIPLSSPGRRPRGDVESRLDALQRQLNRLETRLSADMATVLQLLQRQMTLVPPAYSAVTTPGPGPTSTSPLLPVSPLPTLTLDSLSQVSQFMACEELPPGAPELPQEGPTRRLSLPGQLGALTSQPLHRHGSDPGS
Experimental: Two concentrations (1 and 30 μM, two replicates each) were tested at room temperature.

[6] = test system: hiPSc-CMs (cardiomyocytes); assay: hiPSc-CM multielectrode (MEA) assay; format: cell-based, human; details: 0.37, 1.11, 3.33, 10 and 30 µM
Experimental: The hIPSc-CM assay was conducted to identify DNDI-6174-induced changes in field potential duration (FPD ≈ QT interval), total spike amplitude (TSA ≈ QRS interval) and beat rate. Inducible pluripotent stem cell-derived cardiomyocytes (hiPSc-CMs, iCell2, Cellular Dynamics) were maintained in culture medium (50,000 cells/well) for 7 days. Full media changes were done every 48 h. Following baseline recording, and right after the 1 hour compound treatment time (n=8/concentration, 5 concentrations), 1 min recording of activity was taken daily starting on Day 3 through Day 7 using the Maestro multi-electrode Array System (Axion BioSystems; 48 or 96-well plate). 3μM Quinidine was used as a control for hERG and hNaV1.5 block.

[7] = In vitro cytotoxicity assay; format: cell-based; details: mouse, 3T3 mouse embryo fibroblasts
[8] = In vitro cytotoxicity assay; format: cell-based; details: human, HFF human foreskin fibroblasts
[9] = test system: BALB/c 3T3 mouse fibroblasts; assay: In vitro 3T3 Neutral Red Uptake (NRU) phototoxicity assay; format: cell-based; details: 3T3 NRU
Experimental: Extinction coefficients were 16131 and 8507 L mol^-1 cm^-1, respectively. An in vitro 3T3 Neutral Red Uptake (NRU) phototoxicity assay was then conducted using a 96-well cytotoxicity-based assay that utilizes normal BALB/c 3T3 mouse fibroblasts to measure the concentration-dependent reduction in neutral red uptake by the cells after exposure to test material either in the presence or absence of UVA light. The assay was performed according to OECD (Test No. 432) test guidance ([42]). Duplicate 96-well monolayers of 3T3 fibroblasts were exposed to serial dilutions of test material. One of the plates was exposed to 5 J/cm2 UVA while the other plate was kept in the dark. To assess viability, the NRU by cells exposed to the test chemical in the presence of UVA exposure was compared to the NRU by cells exposed to the test chemical in the absence of UVA exposure. The Photo-Irritation-Factor (PIF) and Mean Photo Effect (MPE) were calculated.

[10] = test system: AR; assay: In vitro pharmacology panel (Eurofins); format: binding, human; details: 10 µM
From the text: Listed values represent the percent change relative to the DMSO control activity. When an IC50 had to be determined, eight different concentrations were included. All values are the mean of assay readout duplicates.

[11] = Exploratory 14-day rat toxicology study
From the text: Parameters monitored included morbidity/mortality, clinical signs, body weight, food consumption, hematology and serum clinical chemistry. Main study animals were killed on the day after the last dose and necropsied. Selected organs were weighed. Organ/tissue samples were fixed and preserved at necropsy. Following the macroscopic examination, selected organs/tissues were examined histopathologically and compared to the control group. Satellite animals were sampled for toxicokinetics on days 1 and 14, at various time-points after treatment.

In the case of `Cc1[nH]c2nc(N)nc(C)c2c1-c1ccc(C#N)c2c1OCO2` [DNDI-6174], the “reduction in liver parasite burden” value [1] is reported as over 95%, the “reduction in liver parasite burden” value ([2]; 12.5 mg/kg bid or higher, 5-day dosing) is reported as over 95% and the “decrease in the liver parasite burden compared to control animals” value ([2]; 12.5 mg/kg bid) is reported as over 98%. The “decrease in the liver parasite burden compared to control animals” value ([2]; 25 mg/kg qd) was over 98%, the “minimum efficacious daily dose” value ([3]; given qd for 5 days) was 12.5 mg/kg and the “reduction of the parasite burden” value ([3]; once daily dosing at and above 12.5 mg/kg, liver, spleen and bone-marrow) was “more than 99%”. For the same compound, the “Microsome predicted in vivo CLplasma” value ([4]; Dog) was 0.91 mL/min/kg, the “In vitro Microsome CLint” value ([4]; Dog, 2 independent experiments) was 4.8 ± 0.47 µL/min/mg and the microsomal CLint at 0.5 µM ([4]; dog, liver microsomes, pH 7.4, Dog, 2 independent experiments, read-out: In vitro Microsome CLint) was 8.3 ± 0.65 µL/min/mg. For the same compound, the IC50 [5] was 31.6 µM, the “field potential duration, spike amplitude and beat period, in words” value [6] was “no notable change in the field potential duration; also recorded: No significant change in the field potential” and the CC50 [7] was over 37 µM. For the same compound, the CC50 [8] was over 64 µM, the “risk of being phototoxic, in words” value [9] was “discarded” and the “activity (% of DMSO control)” value [10] was 99.1%. The “tolerability, in words” value ([11]; 200 mg/kg) was “early sacrifice of one female on day 5”, the body weight decrease ([11]; 200 mg/kg, males) was over 10% and the “tolerability, in words” value ([11]; 30 and 80 mg/kg oral) was “no mortality or morbidity”.
